For 24 compounds, T/C results are on record in PubChem BioAssay AID330 (DTP/NCI, 2004).

This assay concerns P388 leukemia ip, CD2F1 mice, survival T/C. Kind of assay: NCI In Vivo Anticancer Drug Screen. Data for tumor model P388 Leukemia (intraperitoneal) in CD2F1 (CDF1) mice. The following applies: endpoint: median survival time, higher = longer survival. In outline:
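Mice carrying the transplanted tumor received test compound or vehicle. Survival was recorded in each group, and the value is the treated-group measurement divided by that of the vehicle-treated control group.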

Where [1] appears, read: dose: 50.0 mg/kg/injection, schedule: Q01DX005 (ip), vehicle: saline with Tween-80.
Setting [2] is: dose: 100.0 mg/kg/injection, schedule: Q01DX005 (ip), vehicle: saline with Tween-80.
The mark [3] stands for this setting: dose: 200.0 mg/kg/injection, schedule: Q01DX005 (ip), vehicle: saline with Tween-80.
Setting [4] is: dose: 50.0 mg/kg/injection, schedule: Q01DX009 (ip), vehicle: Klucel (hydroxypropylcellulose) (HPC).
[5] abbreviates: dose: 100.0 mg/kg/injection, schedule: Q01DX009 (ip), vehicle: Klucel (hydroxypropylcellulose) (HPC).
[6] abbreviates: dose: 100.0 mg/kg/injection, schedule: Q01DX009 (ip), vehicle: saline.
Where [7] appears, read: dose: 200.0 mg/kg/injection, schedule: Q01DX009 (ip), vehicle: saline.
[8] abbreviates: dose: 400.0 mg/kg/injection, schedule: Q01DX009 (ip), vehicle: saline.
Where [9] appears, read: dose: 12.5 mg/kg/injection, schedule: Q01DX009 (ip), vehicle: saline.
[10] abbreviates: dose: 25.0 mg/kg/injection, schedule: Q01DX009 (ip), vehicle: saline.
Setting [11] is: dose: 50.0 mg/kg/injection, schedule: Q01DX009 (ip), vehicle: saline.
Where [12] appears, read: dose: 12.5 mg/kg/injection, schedule: Q01DX009 (ip), vehicle: Klucel (hydroxypropylcellulose) (HPC).
Where [13] appears, read: dose: 25.0 mg/kg/injection, schedule: Q01DX009 (ip), vehicle: Klucel (hydroxypropylcellulose) (HPC).
[14] abbreviates: dose: 60.0 mg/kg/injection, schedule: Q01DX005 (ip), vehicle: saline with Tween-80.
Setting [15] is: dose: 120.0 mg/kg/injection, schedule: Q01DX005 (ip), vehicle: saline with Tween-80.
[16] abbreviates: dose: 240.0 mg/kg/injection, schedule: Q01DX005 (ip), vehicle: saline with Tween-80.
Setting [17] is: dose: 12.5 mg/kg/injection, schedule: Q01DX009 (ip), vehicle: saline with Tween-80.
[18] abbreviates: dose: 25.0 mg/kg/injection, schedule: Q01DX009 (ip), vehicle: saline with Tween-80.

“And” between values parts separate entries of the source, which are not always exact repeats. Equal entries are not always repeated. Toxic doses and inconclusive results are not listed.

For the compound `C=C(C)C(=O)Oc1cccccc1=O`, the T/C under setting [1] was 102 % of control, the T/C under setting [2] was 106 % of control and the T/C under setting [3] is 114 % of control.

On to `CC(C)(C)c1cc(C(c2ccccc2)(c2ccccc2)c2ccccc2)cc2c1[O][Sb]([c]1ccccc1)([c]1ccccc1)([c]1ccccc1)[NH]2`, for which the T/C was 102 % of control under setting [4]; 103 % of control under setting [5]; 116 % of control (dose: 200.0 mg/kg/injection, schedule: Q01DX009 (ip), vehicle: Klucel (hydroxypropylcellulose) (HPC)).

On to `C#CCOc1ccccc1O`, for which the T/C under setting [6] is 100 % of control, the T/C under setting [7] was 110 % of control and the T/C under setting [8] was 115 % of control.

On to `NCCc1cc(O)c(O)cc1O`, for which the T/C was 101 % of control and 105 % of control (dose: 6.25 mg/kg/injection, schedule: Q01DX009 (ip), vehicle: saline); 107 % of control and 97 % of control under setting [9]; 101 % of control and 109 % of control under setting [10]; 100 % of control and 111 % of control under setting [11].

In the case of `O=C1NCCCC1(Cl)Cl`, the T/C reads like this: under setting [12], 100 % of control; under setting [13], 104 % of control; under setting [4], 94 % of control.

With `OC(CCCCOc1ccccc1)(c1ccccc1)c1ccccc1`, the T/C by setting is: under setting [14], 100 % of control; under setting [15], 101 % of control; under setting [16], 101 % of control.

As for `C=C(CN(C)C)C(=O)c1ccc(OC)cc1`, the T/C is 100 % of control (dose: 0.93 mg/kg/injection, schedule: Q01DX005 (ip), vehicle: saline); 113 % of control (dose: 1.87 mg/kg/injection, schedule: Q01DX005 (ip), vehicle: saline); 99 % of control (dose: 3.75 mg/kg/injection, schedule: Q01DX005 (ip), vehicle: saline).

Take `NC(CCCCC(N)C(=O)c1ccccc1)C(=O)c1ccccc1` (configuration not stated): the T/C is, setting by setting: under setting [14], 98 % of control; under setting [15], 93 % of control; under setting [16], 94 % of control.

Turning to `CC(C)=N/N=C1\C(OC(=O)Nc2ccccc2)=Nc2ccccc21`, the T/C under setting [1] is 96 % of control, the T/C under setting [2] was 95 % of control and the T/C under setting [3] was 90 % of control.

Regarding `C#C/C=C/CC1OC(C(Br)CC)CC(OC(C)=O)C(Cl)CC1Cl` (configuration not stated), the T/C reads like this: (dose: 3.75 mg/kg/injection, schedule: Q01DX005 (ip), vehicle: Klucel (hydroxypropylcellulose) (HPC)) 97 % of control; (dose: 7.5 mg/kg/injection, schedule: Q01DX005 (ip), vehicle: Klucel (hydroxypropylcellulose) (HPC)) 120 % of control; (dose: 15.0 mg/kg/injection, schedule: Q01DX005 (ip), vehicle: Klucel (hydroxypropylcellulose) (HPC)) 100 % of control; (dose: 30.0 mg/kg/injection, schedule: Q01DX005 (ip), vehicle: Klucel (hydroxypropylcellulose) (HPC)) 98 % of control.

For `O=C(NO)/C(CC(=O)c1ccc(O)cc1)=N\O`, the T/C under setting [14] was 104 % of control, the T/C under setting [15] is 101 % of control and the T/C under setting [16] is 105 % of control.

Turning to `COc1ccc(OC)c(C=Nc2ccc(S(=O)(=O)Nc3nccc(C)n3)cc2)c1`, the T/C was 90 % of control under setting [17]; 90 % of control under setting [18]; 87 % of control (dose: 50.0 mg/kg/injection, schedule: Q01DX009 (ip), vehicle: saline with Tween-80); 100 % of control (dose: 200.0 mg/kg/injection, schedule: Q01DX009 (ip), vehicle: saline with Tween-80).

`CC(=O)Nc1ccc(S(=O)(=O)Nc2ccc(O)c3ccccc23)cc1`: the T/C reads like this: (dose: 50.0 mg/kg/injection, schedule: Q04DX003 (ip), vehicle: saline with Tween-80) 88 % of control; (dose: 100.0 mg/kg/injection, schedule: Q04DX003 (ip), vehicle: saline with Tween-80) 90 % of control; (dose: 200.0 mg/kg/injection, schedule: Q04DX003 (ip), vehicle: saline with Tween-80) 100 % of control; (dose: 400.0 mg/kg/injection, schedule: Q04DX003 (ip), vehicle: saline with Tween-80) 117 % of control.

For the compound `COC(C(N)=O)c1ccccc1` (configuration not stated), the T/C under setting [9] is 120 % of control; the T/C under setting [10] is 110 % of control; the T/C under setting [11] was 103 % of control; the T/C under setting [7] was 103 % of control; the T/C under setting [8] is 106 % of control.

In the case of `CCOC(=O)c1c(Br)c2c3ccccc3c3ccccc3n2c1C`, the T/C under setting [14] is 100 % of control, the T/C under setting [15] was 111 % of control and the T/C under setting [16] was 100 % of control.

For `CC(C(=O)O)N1C(=O)C=CC1=O` (configuration not stated), the T/C reads like this: under setting [17], 97 % of control; under setting [18], 91 % of control.

Consider `COc1cccc2c1C(=O)c1c(O)c3c(c(O)c1C2=O)C[C@@](O)(C(C)=O)C[C@@H]3OC1CC(NC(C)C)C(O)C(C)O1` (some centres not stated), for which the T/C is 97 % of control (dose: 0.2 mg/kg/injection, schedule: Q01DX009 (ip), vehicle: water); 103 % of control (dose: 0.39 mg/kg/injection, schedule: Q01DX009 (ip), vehicle: water); 115 % of control (dose: 0.78 mg/kg/injection, schedule: Q01DX009 (ip), vehicle: water); 109 % of control (dose: 4.7 mg/kg/injection, schedule: Q04DX003 (ip), vehicle: water); 157 % of control and 174 % of control (dose: 6.25 mg/kg/injection, schedule: Q01DX009 (ip), vehicle: water); 107 % of control and 113 % of control (dose: 9.4 mg/kg/injection, schedule: Q04DX003 (ip), vehicle: water). Besides, the T/C is 199 % of control (dose: 12.5 mg/kg/injection, schedule: Q01DX009 (ip), vehicle: water); 120 % of control (dose: 18.8 mg/kg/injection, schedule: Q04DX003 (ip), vehicle: water); 106 % of control and 91 % of control (dose: 150.0 mg/kg/injection, schedule: Q04DX003 (ip), vehicle: water).

On to `CCN(CC)CCNc1ccc(O)c2sc3ccccc3c(=O)c12`, for which the T/C was 94 % of control (dose: 6.25 mg/kg/injection, schedule: Q01DX009 (ip), vehicle: saline + alcohol); 89 % of control (dose: 12.5 mg/kg/injection, schedule: Q01DX009 (ip), vehicle: saline + alcohol); 99 % of control (dose: 25.0 mg/kg/injection, schedule: Q01DX009 (ip), vehicle: saline + alcohol); 103 % of control (dose: 50.0 mg/kg/injection, schedule: Q01DX009 (ip), vehicle: saline + alcohol).

Regarding `CCOC(=O)c1ccc(NC(=O)Nc2nc3ccc(OC)cc3s2)cc1`, the T/C runs as follows: (dose: 25.0 mg/kg/injection, schedule: Q01DX009 (ip), vehicle: distilled water + Tween-80) 91 % of control; (dose: 50.0 mg/kg/injection, schedule: Q01DX009 (ip), vehicle: distilled water + Tween-80) 89 % of control; (dose: 100.0 mg/kg/injection, schedule: Q01DX009 (ip), vehicle: distilled water + Tween-80) 91 % of control; (dose: 200.0 mg/kg/injection, schedule: Q01DX009 (ip), vehicle: distilled water + Tween-80) 89 % of control; (dose: 400.0 mg/kg/injection, schedule: Q01DX009 (ip), vehicle: distilled water + Tween-80) 89 % of control.

On to `Cc1cnc(N)c(S(=O)(=O)O)c1`, for which the T/C is 86 % of control under setting [10] and 88 % of control under setting [11].

Consider `c1ccc2c(c1)nc1cc(NC3CCCCC3)c(=NC3CCCCC3)cc-1n2C1CCCCC1`, for which the T/C is 87 % of control under setting [14], 91 % of control under setting [15] and 89 % of control under setting [16].

With `CC(=O)Oc1ccc[nH]c1=S`, the T/C under setting [9] was 101 % of control and 103 % of control; the T/C under setting [10] is 104 % of control and 106 % of control; the T/C under setting [11] was 99 % of control and 102 % of control; the T/C (dose: 100.0 mg/kg/injection, schedule: Q01DX008 (ip), vehicle: saline) was 104 % of control and 106 % of control; the T/C under setting [6] was 100 % of control and 104 % of control; the T/C (dose: 200.0 mg/kg/injection, schedule: Q01DX008 (ip), vehicle: saline) was 105 % of control and 110 % of control. The T/C under setting [7] was 109 % of control and 113 % of control; the T/C (dose: 400.0 mg/kg/injection, schedule: Q01DX008 (ip), vehicle: saline) was 120 % of control; the T/C under setting [8] is 96 % of control.

For `Cc1oc2ccccc2c(=O)c1CO`, the T/C was 104 % of control under setting [14], 100 % of control under setting [15] and 100 % of control under setting [16].

Consider `CC#CC#CC#C/C=C\CCC(=O)CC`, for which the T/C under setting [12] was 95 % of control, the T/C under setting [13] is 95 % of control, the T/C under setting [4] was 95 % of control and the T/C under setting [5] was 100 % of control.
